# Where a SMILES comes first, the peptide text is derived from it. [ ]: non-standard residue; d: D form.
# What was measured:
# [1] = test system: rat; assay: rat tail flick test (method of D-Amour and Smith), analgesic activity; type: in vivo
# Excerpt: The representative polypeptide of this invention Tyr--D--Ala--Gly--Phe--D--Val--NH2, gave the following results in the reference standard rat tail flick test: […]
# [2] = test system: mouse vas deferens; conditions: cited from earlier work
# [3] = test system: guinea pig ileum; conditions: cited from earlier work
# [4] = test system: rats; conditions: injection in the brain ventricle in rats; cited from earlier work
# [5] = test system: opiate receptor; conditions: brain homogenates; cited from earlier work
# [6] = intracerebroventricular; cited from earlier work
compound,measurement,setting,value
"CC(C)[C@@H](NC(=O)[C@H](Cc1ccccc1)NC(=O)CNC(=O)[C@@H](C)NC(=O)[C@@H](N)Cc1ccc(O)cc1)C(N)=O [Tyr--D--Ala--Gly--Phe--D--Val--NH2, L-tyrosyl-D-alanylglycyl-L-phenylalanyl-D-valine amide] (H-Y[dA]GF[dV]-NH2)",No. showing analgesia/No. tested,"[1]; intravenous 1.0 milligram/kilogram, 15 minutes after administration",2/6
same,No. showing analgesia/No. tested,"[1]; intravenous 1.0 milligram/kilogram, 30 minutes after administration",1/6
same,No. showing analgesia/No. tested,"[1]; intravenous 1.0 milligram/kilogram, 60 minutes after administration",0/6
same,No. showing analgesia/No. tested,"[1]; intravenous 2.5 milligram/kilogram, 15 minutes after administration",5/6
same,No. showing analgesia/No. tested,"[1]; intravenous 2.5 milligram/kilogram, 30 minutes after administration",3/5
same,No. showing analgesia/No. tested,"[1]; intravenous 2.5 milligram/kilogram, 60 minutes after administration",3/5
same,No. showing analgesia/No. tested,"[1]; intravenous 5.0 milligram/kilogram, 15 minutes after administration",6/6
same,No. showing analgesia/No. tested,"[1]; intravenous 5.0 milligram/kilogram, 30 minutes after administration",5/6
same,No. showing analgesia/No. tested,"[1]; intravenous 5.0 milligram/kilogram, 60 minutes after administration",0/5
same,No. showing analgesia/No. tested,"[1]; intravenous .25 milligram/kilogram, 15 minutes after administration",1/6
same,No. showing analgesia/No. tested,"[1]; intravenous .25 milligram/kilogram, 30 minutes after administration",0/6
same,No. showing analgesia/No. tested,"[1]; intravenous .25 milligram/kilogram, 60 minutes after administration",1/6
same,No. showing analgesia/No. tested,"[1]; intravenous .5 milligram/kilogram, 15 minutes after administration",4/6
same,No. showing analgesia/No. tested,"[1]; intravenous .5 milligram/kilogram, 30 minutes after administration",4/6
same,No. showing analgesia/No. tested,"[1]; intravenous .5 milligram/kilogram, 60 minutes after administration",1/6
same,No. showing analgesia/No. tested,"[1]; subcutaneous 5.0 milligram/kilogram, 30 minutes after administration",2/6
same,No. showing analgesia/No. tested,"[1]; subcutaneous 5.0 milligram/kilogram, 60 minutes after administration",1/6
same,No. showing analgesia/No. tested,"[1]; subcutaneous 5.0 milligram/kilogram, 90 minutes after administration",0/6
same,No. showing analgesia/No. tested,"[1]; subcutaneous 5.0 milligram/kilogram, 120 minutes after administration",0/6
same,No. showing analgesia/No. tested,"[1]; subcutaneous 20.0 milligram/kilogram, 30 minutes after administration",6/6
same,No. showing analgesia/No. tested,"[1]; subcutaneous 20.0 milligram/kilogram, 60 minutes after administration",3/6
same,No. showing analgesia/No. tested,"[1]; subcutaneous 20.0 milligram/kilogram, 90 minutes after administration",3/6
same,No. showing analgesia/No. tested,"[1]; subcutaneous 20.0 milligram/kilogram, 120 minutes after administration",2/6
H--Tyr--Gly--Gly--Phe--Leu--OH [leucine-enkephalin],block of electrically evoked contractions,[2],block electrically evoked contractions
same,block of electrically evoked contractions,[3],block electrically evoked contractions
same,analgesia,[4],profound analgesia that is fully reversible by naloxone
same,inhibition of stereospecific receptor binding of 3H-naloxone,[5],inhibit the sterospecific receptor binding
H--Tyr--Gly--Gly--Phe--Met--OH [methionine-enkephalin],block of electrically evoked contractions,[2],block electrically evoked contractions
same,block of electrically evoked contractions,[3],block electrically evoked contractions
same,analgesia,[4],profound analgesia that is fully reversible by naloxone
same,inhibition of stereospecific receptor binding of 3H-naloxone,[5],inhibit the sterospecific receptor binding
Tyr--D--Ala--Gly--Phe--D--Leu,activity when administered intracerebroventricularly,[6],activity

# Reference: patent US4148785A, “Analgesic polypeptide” (American Home Products Corporation, priority 1978, dated 1979)
